Laboratory results from PubChem BioAssay AID180 (DTP/NCI, 2004).
Where “and” joins values, the source holds several entries; their conditions need not be identical. Equal values may be shown once.

Test system: BDF1 mice, Adenocarcinoma 755 s.c., tumor weight T/C
Experiment: NCI In Vivo Anticancer Drug Screen. Data for tumor model Adenocarcinoma 755 (subcutaneous) in B6D2F1 (BDF1) mice
Details: endpoint: mean tumor weight, schedule: Q01DX011 (ip), higher = larger tumour
In short: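 Transplantable tumor implanted; mice dosed with compound or vehicle; survival or tumor size recorded; ratio of treated to vehicle control reported.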

[1] = dose: 50.0 mg/kg/injection, vehicle: saline
[2] = dose: 10.0 mg/kg/injection, vehicle: carboxymethylcellulose (CMC)
[3] = dose: 20.0 mg/kg/injection, vehicle: carboxymethylcellulose (CMC)
[4] = dose: 40.0 mg/kg/injection, vehicle: carboxymethylcellulose (CMC)
[5] = dose: 500.0 mg/kg/injection, vehicle: carboxymethylcellulose (CMC)
[6] = dose: 15.0 mg/kg/injection, vehicle: carboxymethylcellulose (CMC)
[7] = dose: 50.0 mg/kg/injection, vehicle: carboxymethylcellulose (CMC)
[8] = dose: 125.0 mg/kg/injection, vehicle: carboxymethylcellulose (CMC)
[9] = dose: 250.0 mg/kg/injection, vehicle: carboxymethylcellulose (CMC)
[10] = dose: 60.0 mg/kg/injection, vehicle: carboxymethylcellulose (CMC)
[11] = dose: 5.0 mg/kg/injection, vehicle: carboxymethylcellulose (CMC)
[12] = dose: 125.0 mg/kg/injection, vehicle: methylcellulose (MC)
[13] = dose: 75.0 mg/kg/injection, vehicle: carboxymethylcellulose (CMC)
[14] = dose: 30.0 mg/kg/injection, vehicle: carboxymethylcellulose (CMC)

## CN(C)[C@@H]1C(=O)C(C(=O)NCNC2(C(=O)O)CCCC2)=C(O)[C@@]2(O)C(=O)C3=C(O)c4c(O)cccc4[C@@](C)(O)[C@H]3C[C@@H]12
[1]
  T/C: 77 % of control
dose: 75.0 mg/kg/injection, vehicle: saline
  T/C: 65 % of control
dose: 125.0 mg/kg/injection, vehicle: saline
  T/C: 41 % of control
dose: 250.0 mg/kg/injection, vehicle: saline
  T/C: 1 % of control

## Cc1nc(N2CC2)nc(N2CC2)c1[N+](=O)[O-]
dose: 0.6 mg/kg/injection, vehicle: methylcellulose (MC)
  T/C: 47 % of control
dose: 1.1 mg/kg/injection, vehicle: methylcellulose (MC)
  T/C: 59 % of control
dose: 2.25 mg/kg/injection, vehicle: methylcellulose (MC)
  T/C: 12 % of control

## O=C(O)C(O)C(O)C(O)C(O)CO.O=C(O)C(O)C(O)C(O)C(O)CO.O=C(O)C(O)C(O)C(O)C(O)CO.[Ga] (stereo not drawn)
[2]
  T/C: 72 % of control
[3]
  T/C: 64 % of control
[4]
  T/C: 25 % of control
dose: 80.0 mg/kg/injection, vehicle: carboxymethylcellulose (CMC)
  T/C: 10 % of control

## NC(CCSCc1ccc(N(CCCl)CCCl)cc1)C(=O)O (stereo not drawn)
dose: 4.5 mg/kg/injection, vehicle: saline
  T/C: 99 % of control and 74 % of control
dose: 9.0 mg/kg/injection, vehicle: saline
  T/C: 43 % of control and 54 % of control
dose: 36.0 mg/kg/injection, vehicle: saline
  T/C: 29 % of control
dose: 54.0 mg/kg/injection, vehicle: saline
  T/C: 21 % of control

## COc1ccccc1NC(=O)CSC(N)=O
dose: 50.0 mg/kg/injection, vehicle: methylcellulose (MC)
  T/C: 106 % of control
dose: 400.0 mg/kg/injection, vehicle: carboxymethylcellulose (CMC)
  T/C: 5 % of control

## O=C(CCl)Nc1ncnc2nc[nH]c12
dose: 20.0 mg/kg/injection, vehicle: methylcellulose (MC)
  T/C: 84 % of control

## CCCCCCn1cnc2c(=S)nc[nH]c21
dose: 63.0 mg/kg/injection, vehicle: carboxymethylcellulose (CMC)
  T/C: 50 % of control
[5]
  T/C: 5 % of control and 13 % of control

## O=C(OCC1OC(n2cnc3c(=S)nc[nH]c32)C(OC(=O)c2ccccc2)C1OC(=O)c1ccccc1)c1ccccc1 (stereo not drawn)
dose: 8.0 mg/kg/injection, vehicle: carboxymethylcellulose (CMC)
  T/C: 98 % of control
[6]
  T/C: 91 % of control
dose: 31.0 mg/kg/injection, vehicle: carboxymethylcellulose (CMC)
  T/C: 99 % of control
dose: 32.0 mg/kg/injection, vehicle: carboxymethylcellulose (CMC)
  T/C: 53 % of control
[7]
  T/C: 53 % of control
dose: 100.0 mg/kg/injection, vehicle: carboxymethylcellulose (CMC)
  T/C: 7 % of control
[8]
  T/C: 2 % of control and 6 % of control and 12 % of control
[9]
  T/C: 1 % of control

## Nc1nc(C(F)(F)F)c2ncn(Cc3ccccc3)c2n1
[10]
  T/C: 92 % of control
dose: 120.0 mg/kg/injection, vehicle: carboxymethylcellulose (CMC)
  T/C: 123 % of control

## CN(N=O)C(=O)C1CC(=O)NC(=O)C1
dose: 2.5 mg/kg/injection, vehicle: carboxymethylcellulose (CMC)
  T/C: 39 % of control
[11]
  T/C: 102 % of control
[2]
  T/C: 114 % of control

## C=C(C)[C@H]1Cc2c(ccc3c2O[C@@H]2COc4cc(OC)c(OC)cc4[C@@H]2C3=O)O1
dose: 0.5 mg/kg/injection, vehicle: water
  T/C: 93 % of control
dose: 0.75 mg/kg/injection, vehicle: water
  T/C: 96 % of control
dose: 1.0 mg/kg/injection, vehicle: water
  T/C: 74 % of control
dose: 2.0 mg/kg/injection, vehicle: water
  T/C: 88 % of control

## NC(N)=N/N=C/c1c(O)ccc2ccccc12
dose: 12.5 mg/kg/injection, vehicle: saline
  T/C: 77 % of control
dose: 25.0 mg/kg/injection, vehicle: saline
  T/C: 67 % of control
[1]
  T/C: 54 % of control

## COc1ncnc2nc[nH]c12
dose: 62.0 mg/kg/injection, vehicle: other
  T/C: 107 % of control
dose: 125.0 mg/kg/injection, vehicle: other
  T/C: 90 % of control
dose: 250.0 mg/kg/injection, vehicle: other
  T/C: 44 % of control

## Cn1ccc(N)nc1=O
dose: 15.0 mg/kg/injection, vehicle: methylcellulose (MC)
  T/C: 88 % of control
dose: 31.0 mg/kg/injection, vehicle: methylcellulose (MC)
  T/C: 108 % of control
dose: 62.0 mg/kg/injection, vehicle: methylcellulose (MC)
  T/C: 98 % of control
[12]
  T/C: 84 % of control

## CN(C)C1C(=O)C(C(=O)NCNC(CCS(C)=O)C(=O)O)=C(O)C2(O)C(=O)C3=C(O)c4c(O)cccc4C(C)(O)C3CC12 (stereo not drawn)
dose: 200.0 mg/kg/injection, vehicle: saline
  T/C: 68 % of control

## NC(Cc1cccs1)C(=O)O (stereo not drawn)
[8]
  T/C: 71 % of control and 72 % of control
[12]
  T/C: 90 % of control
[9]
  T/C: 91 % of control and 106 % of control
dose: 250.0 mg/kg/injection, vehicle: methylcellulose (MC)
  T/C: 155 % of control
[5]
  T/C: 65 % of control and 78 % of control
dose: 500.0 mg/kg/injection, vehicle: methylcellulose (MC)
  T/C: 59 % of control
dose: 1000.0 mg/kg/injection, vehicle: carboxymethylcellulose (CMC)
  T/C: 96 % of control and 102 % of control
dose: 1000.0 mg/kg/injection, vehicle: methylcellulose (MC)
  T/C: 52 % of control

## Cn1c(=O)c2c(ncn2CCCO)n(C)c1=O
[13]
  T/C: 61 % of control
dose: 225.0 mg/kg/injection, vehicle: carboxymethylcellulose (CMC)
  T/C: 65 % of control

## O=C=NC(c1ccccc1)(c1ccccc1)c1ccccc1
dose: 7.0 mg/kg/injection, vehicle: carboxymethylcellulose (CMC)
  T/C: 102 % of control
dose: 14.0 mg/kg/injection, vehicle: carboxymethylcellulose (CMC)
  T/C: 103 % of control
dose: 28.0 mg/kg/injection, vehicle: carboxymethylcellulose (CMC)
  T/C: 86 % of control and 87 % of control
dose: 112.0 mg/kg/injection, vehicle: carboxymethylcellulose (CMC)
  T/C: 71 % of control

## CC(=O)C(CCC(=O)O)(CCC(=O)O)c1ccccc1
dose: 30.0 mg/kg/injection, vehicle: other
  T/C: 87 % of control
dose: 60.0 mg/kg/injection, vehicle: other
  T/C: 71 % of control
dose: 120.0 mg/kg/injection, vehicle: other
  T/C: 117 % of control
dose: 240.0 mg/kg/injection, vehicle: other
  T/C: 97 % of control

## CCCN(C)/N=N/c1nc[nH]c1C(N)=O
[11]
  T/C: 91 % of control
dose: 7.5 mg/kg/injection, vehicle: carboxymethylcellulose (CMC)
  T/C: 87 % of control
[2]
  T/C: 51 % of control
[6]
  T/C: 47 % of control
[3]
  T/C: 39 % of control
[14]
  T/C: 30 % of control
[4]
  T/C: 37 % of control

## O=C1C=Cc2ccc(O)cc2C1=O
dose: 2.0 mg/kg/injection, vehicle: saline
  T/C: 103 % of control
dose: 8.0 mg/kg/injection, vehicle: saline
  T/C: 50 % of control

## CC(=O)Nc1nc(Cl)c2ncn(C3CCCO3)c2n1 (stereo not drawn)
[14]
  T/C: 106 % of control
[10]
  T/C: 38 % of control
dose: 240.0 mg/kg/injection, vehicle: carboxymethylcellulose (CMC)
  T/C: 19 % of control and 42 % of control

## Cc1ccc2c(c1)CCCN2C(=O)CCCl
dose: 25.0 mg/kg/injection, vehicle: methylcellulose (MC)
  T/C: 101 % of control
dose: 75.0 mg/kg/injection, vehicle: methylcellulose (MC)
  T/C: 40 % of control
dose: 225.0 mg/kg/injection, vehicle: methylcellulose (MC)
  T/C: 60 % of control

## S=C(N=Nc1ccccc1)NNc1ccccc1
[7]
  T/C: 113 % of control
[13]
  T/C: 152 % of control
